Like-named read-outs stand apart in the source and are kept apart here.
Experiments:
Experiment in all cases: cells
K562 = tested on: T1, K562; design: dose-response cell viability assay in K562 CRISPRi/CRISPRa CML cells, IC50; conditions: Homo sapiens, read-out: Cell viability IC50 (nM) / No sgRNA
T1 construct: engineered with CRISPRi or CRISPRa machinery, no sgRNA
Excerpt: To further examine the breadth of linked chemotypes that might be assisted by IFITMs, we designed, synthesized, and characterized a new linked molecular glue inhibitor based on the natural product rocaglamide. Rocaglamide clamps the EIF4A1 helicase to 5’ untranslated regions (UTRs) of target mRNAs to inhibit the translation of downstream sequences ([64]). […] We reasoned that dimerization of rocaglamide through its amide position could be a chemically tractable means to simultaneously engage two proximal EIF4A1-RNA complexes within the cell. We designed a molecule, BisRoc-1 (fig. S9B), that links two rocaglamide monomers together with a linker length (35 heavy atoms) exceeding the distance separating two rocaglamide binding sites in the crystal structure (fig. S9A). […] Additionally, we evaluated the relationship between linker length and IFITM assistance by examining an analog series consisting of BisRoc-1 (PEG11), BisRoc-2 (PEG4), BisRoc-3 (PEG2), and rocaglamide (no linker) (fig. S9E). We treated our K562 CRISPRi and CRISPRa cells with these inhibitors and evaluated differences in potency resulting from IFITM expression modulation, as measured by half-maximal inhibitory concentration (IC50) shift in a cell viability assay (fig. S9, E and F, and data file S7). […] Given the ubiquitous presence of IFITMs in cells, we hypothesized that the cellular uptake of other linked inhibitors in the literature could also be assisted by IFITMs. While not generally as large as the linked chemotypes described above, PROTACs are likewise composed of two chemical entities covalently attached by a flexible tether ([16]). Thus, we included four PROTACs (GMB-475, MZ1, BETd-260, and dBET6) and their non-linked parent inhibitors in an expanded survey of chemical-genetic interactions with IFITMs (Fig. 4A, fig. S10, and table S1). These compounds were evaluated in the same IFITM dependency analysis as the BisRoc linker series (Fig. 4B and data file S7). Using RapaLink-1 as a chemical benchmark, we observed that IFITM1, IFITM2, and IFITM3 overexpression sensitized cells to linked chemotypes (Fig. 4B; compounds 9-17). The inverse finding, resistance to linked chemotypes, resulted from gene knockdown (Fig. 4B). The trend observed in the BisRoc series was corroborated across the 9 bivalent molecules tested (Fig. 4B): the magnitudes of chemical-genetic interactions correlated with linker length which is reflected in inhibitor size (molecular weight) and flexibility (number of rotatable bonds). Linked chemotypes with long linkers were more IFITM-assisted than linked chemotypes with short linkers, and non-linked chemotypes (Fig. 4B; compounds 1-8) were not observed to be assisted by IFITMs (Fig. 4B). Despite their cellular activities, the physicochemical properties of the linked chemotypes largely violate Lipinski’s ([1]) and Veber’s ([2]) classic guidelines (Fig. 4, A to C, and table S1), raising the need for a revised drug design framework that considers IFITM-assisted uptake and other cellular import processes.  Fig. 4. IFITMs assist the cellular activity of diverse linked chemotypes. (A) Heavy atom skeletons of compounds assessed for IFITM assistance (see also fig. S10 for chemical structures). Compounds were categorized as non-linked chemotypes (compounds 1–8, black), linked chemotypes with short linkers (compounds 9–14, gray), or linked chemotypes with long linkers (compounds 15–17, green). (B) Chemical-genetic interaction map of inhibitors in (A) with IFITM1, IFTM2, and IFITM3. Potency, as measured by dose-response IC50 in a cell viability assay (see also Fig. 1F, Fig. 3D, or fig. S9D for example source data), was normalized to that of non-sgRNA-expressing K562 CRISPRi or CRISPRa cells. Physicochemical properties, including molecular weight (MW) and number of rotatable bonds, with their respective traditional thresholds for drug-likeness are indicated (right). Data represent means of three biological replicates. […]

K562 CRISPRa = tested on: K562 CRISPRa; design: Cell viability dose-response in K562 CRISPRi/CRISPRa cells; IC50 from fitted curve; conditions: Homo sapiens; sheet K562 CRISPRa IC50;; non-targeting control sgRNA; read-out: Cell viability IC50 (nM) / NegCtrl sg
Excerpt: (§1) To further examine the breadth of linked chemotypes that might be assisted by IFITMs, we designed, synthesized, and characterized a new linked molecular glue inhibitor based on the natural product rocaglamide. Rocaglamide clamps the EIF4A1 helicase to 5’ untranslated regions (UTRs) of target mRNAs to inhibit the translation of downstream sequences ([64]). […] We reasoned that dimerization of rocaglamide through its amide position could be a chemically tractable means to simultaneously engage two proximal EIF4A1-RNA complexes within the cell. We designed a molecule, BisRoc-1 (fig. S9B), that links two rocaglamide monomers together with a linker length (35 heavy atoms) exceeding the distance separating two rocaglamide binding sites in the crystal structure (fig. S9A). […] Additionally, we evaluated the relationship between linker length and IFITM assistance by examining an analog series consisting of BisRoc-1 (PEG11), BisRoc-2 (PEG4), BisRoc-3 (PEG2), and rocaglamide (no linker) (fig. S9E). We treated our K562 CRISPRi and CRISPRa cells with these inhibitors and evaluated differences in potency resulting from IFITM expression modulation, as measured by half-maximal inhibitory concentration (IC50) shift in a cell viability assay (fig. S9, E and F, and data file S7). […] IFITMs assist the cellular activity of diverse linked chemotypes. (A) Heavy atom skeletons of compounds assessed for IFITM assistance (see also fig. S10 for chemical structures). Compounds were categorized as non-linked chemotypes (compounds 1–8, black), linked chemotypes with short linkers (compounds 9–14, gray), or linked chemotypes with long linkers (compounds 15–17, green). (B) Chemical-genetic interaction map of inhibitors in (A) with IFITM1, IFTM2, and IFITM3. Potency, as measured by dose-response IC50 in a cell viability assay (see also Fig. 1F, Fig. 3D, or fig. S9D for example source data), was normalized to that of non-sgRNA-expressing K562 CRISPRi or CRISPRa cells. Physicochemical properties, including molecular weight (MW) and number of rotatable bonds, with their respective traditional thresholds for drug-likeness are indicated (right). Data represent means of three biological replicates. (C) Map of chemical space populated by 304 kinase inhibitors in clinical development (black), 3270 PROTACs reported in the literature (gray), and 3 linked chemotypes described herein (green). Boundaries represent traditional guidelines for drug-likeness.

K562 CRISPRi = tested on: K562 CRISPRi; design: Cell viability dose-response in K562 CRISPRi/CRISPRa cells; IC50 from fitted curve; conditions: Homo sapiens, non-targeting control sgRNA, read-out: Cell viability IC50 (nM) / NegCtrl sg
Excerpt: as §1

[1] = sheet K562 CRISPRa IC50, no sgRNA

Question: For `CO[C@@H]1C[C@@H]2CC[C@@H](C)[C@@](O)(O2)C(=O)C(=O)N2CCCC[C@@H]2C(=O)O[C@H]([C@H](C)C[C@H]2CC[C@H](OCCOCc3cn(CCOCCOCCOCCOCCOCCOCCOCCOCCC(=O)NCCCCn4nc(-c5ccc6oc(N)nc6c5)c5c(N)ncnc54)nn3)[C@H](OC)C2)CC(=O)[C@H](C)/C=C(/C)[C@H](O)[C@@H](OC)C(=O)[C@H](C)C[C@H](C)\C=C/C=C\C=C/1C` (stereo in doubt) [RapaLink-1], which IC50 (K562; [1]) is on record?
Answer: 2.23 nM

Question: And the IC50 (K562; Cells=K562 CRISPRi, no sgRNA)?
Answer: 1.19 nM

Question: And the IC50 (K562 CRISPRa)?
Answer: 2.07 nM

Question: And the IC50 (K562 CRISPRi)?
Answer: 1.25 nM

Question: For `CCn1nc(C2CC2)cc1Nc1nc(C(=O)NCCCCCc2cccc3c2CN(C2CCC(=O)NC2=O)C3=O)nc2[nH]c3cc(-c4c(C)noc4C)c(OC)cc3c12` (centres unmarked) [BETd-260], which IC50 (K562; [1]) is on record?
Answer: 1.15 nM

Question: And the IC50 (K562; Cells=K562 CRISPRi, no sgRNA)?
Answer: 3.79 nM

Question: And the IC50 (K562 CRISPRa)?
Answer: 1.04 nM

Question: And the IC50 (K562 CRISPRi)?
Answer: 3.88 nM

Question: For `Cc1ncsc1-c1ccc(CNC(=O)[C@@H]2C[C@@H](O)CN2C(=O)[C@@H](NC(=O)COCCOc2ccc(-c3cc(Nc4ccc(OC(F)(F)F)cc4)ncn3)cc2)C(C)(C)C)cc1` [GMB-475], which IC50 (K562; [1]) is on record?
Answer: 212 nM

Question: What about the IC50 (K562; Cells=K562 CRISPRi, no sgRNA) of the same molecule?
Answer: 264 nM

Question: What about the IC50 (K562 CRISPRa) of the same molecule?
Answer: 179 nM

Question: What about the IC50 (K562 CRISPRi) of the same molecule?
Answer: 249 nM

Question: How did the IC50 (K562; [1]) turn out when `NC(=O)c1cccc(-c2cc(Nc3ccc(OC(F)(F)F)cc3)ncn2)c1` [GNF-2] was run?
Answer: 202 nM

Question: What about the IC50 (K562; Cells=K562 CRISPRi, no sgRNA) of the same molecule?
Answer: 291 nM

Question: What about the IC50 (K562 CRISPRa) of the same molecule?
Answer: 205 nM

Question: And the IC50 (K562 CRISPRi)?
Answer: 284 nM

Question: Which results are given for `CCn1nc(C2CC2)cc1Nc1nc(C(=O)NC)nc2[nH]c3cc(-c4c(C)noc4C)c(OC)cc3c12` [HJB97]?
Answer: IC50 (K562; [1]): 11.6 nM; IC50 (K562; Cells=K562 CRISPRi, no sgRNA): 46.8 nM; IC50 (K562 CRISPRa): 9.74 nM; IC50 (K562 CRISPRi): 41.5 nM

Question: Which IC50 (K562; [1]) does the source give for `Cc1sc2c(c1C)C(c1ccc(Cl)cc1)=N[C@@H](CC(=O)OC(C)(C)C)c1nnc(C)n1-2` [JQ1] here?
Answer: 24.4 nM

Question: What about the IC50 (K562; Cells=K562 CRISPRi, no sgRNA) of the same molecule?
Answer: 118 nM

Question: And the IC50 (K562 CRISPRa)?
Answer: 22.2 nM

Question: What about the IC50 (K562 CRISPRi) of the same molecule?
Answer: 121 nM

Question: How did the IC50 (K562; [1]) turn out when `Cc1ncsc1-c1ccc(CNC(=O)[C@@H]2C[C@@H](O)CN2C(=O)[C@@H](NC(=O)COCCOCCOCCNC(=O)C[C@@H]2N=C(c3ccc(Cl)cc3)c3c(sc(C)c3C)-n3c(C)nnc32)C(C)(C)C)cc1` [MZ1] was run?
Answer: 31.4 nM

Question: What about the IC50 (K562; Cells=K562 CRISPRi, no sgRNA) of the same molecule?
Answer: 135 nM

Question: What about the IC50 (K562 CRISPRa) of the same molecule?
Answer: 33.3 nM

Question: And the IC50 (K562 CRISPRi)?
Answer: 146 nM

Question: What does the source list for `CO[C@H]1C[C@@H]2CC[C@@H](C)[C@@](O)(O2)C(=O)C(=O)N2CCCC[C@H]2C(=O)O[C@H]([C@H](C)C[C@@H]2CC[C@@H](O)[C@H](OC)C2)CC(=O)[C@H](C)/C=C(\C)[C@@H](O)[C@@H](OC)C(=O)[C@H](C)C[C@H](C)/C=C/C=C/C=C/1C` [Rapamycin]?
Answer: IC50 (K562; [1]): 0.356 nM; IC50 (K562; Cells=K562 CRISPRi, no sgRNA): 0.743 nM; IC50 (K562 CRISPRa): 0.376 nM; IC50 (K562 CRISPRi): 0.776 nM

Question: What does the source list for `COc1ccc([C@@]23Oc4cc(OC)cc(OC)c4[C@]2(O)[C@H](O)[C@H](C(=O)N(C)C)[C@H]3c2ccccc2)cc1` [Rocaglamide]?
Answer: IC50 (K562; [1]): 7.65 nM; IC50 (K562; Cells=K562 CRISPRi, no sgRNA): 7.23 nM; IC50 (K562 CRISPRa): 6.97 nM; IC50 (K562 CRISPRi): 6.86 nM

Question: What does the source list for `CC(C)n1nc(-c2ccc3oc(N)nc3c2)c2c(N)ncnc21` [Sapanisertib]?
Answer: IC50 (K562; [1]): 14.2 nM; IC50 (K562; Cells=K562 CRISPRi, no sgRNA): 24.6 nM; IC50 (K562 CRISPRa): 15.3 nM; IC50 (K562 CRISPRi): 24.4 nM

Question: `Cc1sc2c(c1C)C(c1ccc(Cl)cc1)=N[C@@H](CC(=O)NCCCCCCCCNC(=O)COc1cccc3c1C(=O)N(C1CCC(=O)NC1=O)C3=O)c1nnc(C)n1-2` (some centres unmarked) [dBET6] was tested. Which IC50 (K562; [1]) did it give?
Answer: 3.26 nM

Question: And the IC50 (K562; Cells=K562 CRISPRi, no sgRNA)?
Answer: 11.7 nM

Question: What about the IC50 (K562 CRISPRa) of the same molecule?
Answer: 3.04 nM

Question: And the IC50 (K562 CRISPRi)?
Answer: 12.6 nM

Source: PMC9924227, “IFITM proteins assist cellular uptake of diverse linked chemotypes” (Science (New York, N.Y.), 2022)
